Source: patent US6194398A, “Phosphonate nucleotide compound” (Mitsubishi Chemical Corporation, priority 1996, dated 2001)
Where two headings read alike, the source gives them in different places.

Key:
Hepatitis B virus (HBV) = experiment: HBV growth inhibition effect: HBV-DNA synthesis in HB611 cells, Southern blotting; assay type: cell-based; settings: read-out: 50% inhibitory concentration for HBV-DNA synthesis
Description: Hepatitis B virus (HBV) growth inhibition effect
HBV growth inhibition effect was measured in accordance with a known method (K. Ueda et al., Virology, 169, 213-216 (1989)).
(§1) A total of 2×10^4 cells of HB611 (a HBV-producing recombinant human hepatoma cell strain) were cultured at 37° C. in Dulbecco's ME medium containing 10% fetal bovine serum, streptomycin (100 μg/ml), penicillin (100 IU/ml) and Geneticin (trade name, an antibiotic substance manufactured by Life Technologies) (0.2 mg/ml). The medium was exchanged on the 2nd and 5th days of the culturing and then replaced by the medium supplemented with a sample to be tested at a final concentration of from 0.005 to 100 μM after 8, 11 and 14 days of the culturing, and DNA was recovered from the cells after 17 days of the culturing. The amount of HBV-DNA in the cells was measured by Southern blotting to calculate concentration of the compound to give 50% inhibition of HBV-DNA synthesis. Also, the concentration of each compound required for causing death to 50% of the HB611 cells was calculated. For the sake of comparison, the same test was carried out on a known compound PMFA, a dipivaloyloxymethyl ester of PMEA (Reference Example 1) and a known compound 9-[2-[bis(2,2,2-trifluoroethyl)-phosphonylmethoxy]ethyl]-2-amino-6-p-toluylthiopurine disclosed in EP 632048 (Reference Example 2). In this connection, the compound No. corresponds to the compound No. in Table 1.

[1] = Cytotoxicity: concentration causing death to 50% of HB611 cells; assay type: cell-based; settings: human, read-out: 50% Cytotoxic concentration for HB611 cells
Description: as §1, with “The medium was exchanged on the 2nd and 5th days of the culturing and then replaced by the medium supplemented with a sample to be tested at a final concentration of from 0.005 to 100 μM after 8, 11 and 14 days of the culturing, and DNA was recovered from the cells after 17 days of the culturing.” left out

HBV = experiment: Inhibitory effect on HBV replication of low molecular weight fraction of liver homogenate of orally dosed mouse; assay type: cell-based, hepatitis B virus; settings: 0.2 g/kg oral, liver 1 hour after administration, 1% low molecular weight fraction in HB611 medium
Description: Inhibitory effect on HBV replication of low molecular weight fraction prepared from liver homogenate of a mouse that was orally administered with a compound.
A sample to be tested was orally administered to each mouse of three animals per group in a dose of 0.2 g/kg, liver perfusion was carried out from the portal vein one hour after the administration and then the liver was excised. The thus excised liver was mixed with the same weight of physiological saline and was homogenized, and then a sample of low molecular weight fraction of the homogenate was prepared using an ultrafiltration membrane having a cutoff of 5,000 molecular weight.
A total of 2×10^4 cells of HB611 were cultured at 37° C. in Dulbecco's ME medium containing 10% fetal bovine serum, streptomycin (100 μg/ml), penicillin (100 IU/ml) and Geneticin (0.2 mg/ml). The medium was exchanged on the 2nd and 5th days of the culturing and then replaced by the medium supplemented with 1% of the just described low molecular weight fraction sample after 8, 11 and 14 days of the culturing, and DNA was recovered from the cells after 17 days of the culturing. The amount of HBV-DNA in the cells was measured by Southern blotting to evaluate inhibitory effect on HBV-DNA synthesis in the cells. […]

[2] = tested on: herpes simplex virus type 2 (HSV-2); settings: reported in literature; cited from earlier work
[3] = tested on: human hepatitis B virus (HBV); settings: reported in literature; cited from earlier work
[4] = tested on: human immunodeficiency virus (HIV); settings: reported in literature; cited from earlier work
[5] = tested on: herpes simplex virus type 1 (HSV-1); settings: reported in literature; cited from earlier work
[6] = 408 h, HB611 cells, medium with sample on days 8, 11 and 14, DNA recovered after 17 days

**Q.** With `CC(C)Sc1nc(N)nc2c1ncn2CCOCP(=O)(OCC(F)(F)F)OCC(F)(F)F` [Compound 4, 2-amino-9-[2-[bis(2,2,2-trifluoroethyl)phosphonylmethoxy]ethyl]-6-i-propylthiopurine] as the compound, how does the IC50 (Hepatitis B virus (HBV); [6]) read?
**A.** The IC50 was 0.07 µM.

**Q.** What about the CC50 [1] of the same compound?
**A.** Its CC50 is over 1000 µM.

**Q.** What does the source list for `CC(C)(C)C(=O)OCOP(=O)(COCCn1cnc2c(N)ncnc21)OCOC(=O)C(C)(C)C` [Ref. Ex. 1]?
**A.** IC50 (Hepatitis B virus (HBV); HB611, 408 h): 1.08 µM; CC50 [1]: 17.7 µM

**Q.** Which IC50 (Hepatitis B virus (HBV); [6]) does the source give for `Cc1ccc(Sc2nc(N)nc3c2ncn3CCOCP(=O)(OCC(F)(F)F)OCC(F)(F)F)cc1` [Ref. Ex. 2, 9-[2-[bis(2,2,2-trifluoroethyl)-phosphonylmethoxy]ethyl]-2-amino-6-p-toluylthiopurine] here?
**A.** Its IC50 is 0.06 µM.

**Q.** Which results are given for `CCCSc1nc(N)nc2c1ncn2CCOCP(=O)(OCC(F)(F)F)OCC(F)(F)F` [Compound 3, 2-amino-9-[2-[bis(2,2,2-trifluoroethyl)phosphonylmethoxy]ethyl]-6-n-propylthiopurine]?
**A.** IC50 (Hepatitis B virus (HBV); [6]): 0.02 µM; % inhibition of HBV-DNA synthesis (HBV): 49%; CC50 [1]: > 1000 µM

**Q.** Which “effective against HSV-2” value [2] does the source give for `Nc1nc(N)c2ncn(CCOCP(=O)(O)O)c2n1` [PMDAP, 9-(2-phosphonylmethoxy)ethyl-2,6-diaminopurine] here?
**A.** Its value is “effective”.

**Q.** What about the “effective against HBV” value [3] of the same compound?
**A.** The value was “effective”.

**Q.** What about the “effective against HIV” value [4] of the same compound?
**A.** Its value is “effective”.

**Q.** What about the “effective against HSV-1” value [5] of the same compound?
**A.** Its value is “effective”.

**Q.** Which results are given for `CCSc1nc(N)nc2c1ncn2CCOCP(=O)(OCC(F)(F)F)OCC(F)(F)F` [Compound 2, 2-amino-9-[2-[bis(2,2,2-trifluoroethyl)phosphonylmethoxy]ethyl]-6-ethylthiopurine]?
**A.** IC50 (Hepatitis B virus (HBV); [6]): 0.06 µM; CC50 [1]: > 1000 µM

**Q.** For `CCCSc1nc(N)nc2c1ncn2CCOCP(=O)(O)O` [Ref. Ex. 3, 2-amino-9-(2-phosphonylmethoxyethyl)-6-n-propylthiopurine], which “% inhibition of HBV-DNA synthesis” value (HBV) is on record?
**A.** Its value is 17%.

**Q.** Which “effective against HSV-2” value [2] does the source give for `Nc1ncnc2c1ncn2CCOCP(=O)(O)O` [PMEA, 9-(2-phosphonylmethoxy)ethyladenine] here?
**A.** The value was “effective”.

**Q.** What about the IC50 (Hepatitis B virus (HBV); HB611, 408 h) of the same compound?
**A.** Its IC50 is 0.3 µM.

**Q.** And the “effective against HBV” value [3]?
**A.** Its value is “effective”.

**Q.** What about the CC50 [1] of the same compound?
**A.** The CC50 was 334 µM.

**Q.** What about the “effective against HIV” value [4] of the same compound?
**A.** The value was “effective”.

**Q.** What about the “effective against HSV-1” value [5] of the same compound?
**A.** Its value is “effective”.
